Where two headings read alike, the source gives them in different places.
Experiments:
[1] = tested on: GSK-3α (Tyr276) / GSK-3β (Tyr216); experiment: Tyrosine phosphorylation of GSK-3 in SH-SY5Y cells (Western blot); assay type: cell-based, human; details: 1 μM, 12 hr
Source text: GSK-3α and GSK-3β activity is enhanced by the phosphorylation of a specific tyrosine residue (Tyr276 and Tyr216, respectively) (Hughes et al. (1993) EMBO J. 12: 803-808; Dajani et al. (2003) EMBO J. 22: 494-501). The tyrosine kinase responsible for this phosphorylation in mammals is unknown, but there is some evidence that it indirectly depends on GSK-3 activity (Bhat et al. (2000) Proc. Natl. Acad. Sci. U.S.A. 97: 11074-11079; Shaw et al. (1997) FEBS Lett. 416: 307-311). […] SH-SY5Y cells were exposed to IO, MeIO, BIO and MeBIO for 12 hr and the phosphorylation of Tyr276 (GSK-3α) and Tyr216 (GSK-3β) was estimated by Western blotting with phospho-specific antibodies. […] This was accompanied by an increased level in total GSK-3β, total β-catenin, and dephospho-&catenin.

[2] = tested on: BP8 (AhR −/−) hepatoma cells; experiment: Cell viability MTT assay, BP8 cells; assay type: cell-based, mouse; details: range of concentrations, 24 and 48 hr
[3] = tested on: Xenopus laevis embryos; experiment: Maternal Wnt pathway activation in Xenopus laevis embryos (phenotype, RT-PCR of animal caps); assay type: in vivo; details: for embryo phenotype (anteriorization): BIO 5-50 μM, MeBIO 50 μM, LiCl 0.3 M, treated before stage 8, tadpole stage
Description: Xenopus laevis embryos obtained by in vitro fertilization were cultured in 0.1×MMR and staged (Nieuwkoop & Faber (1967) Normal table of Xenopus Laevis (North Holland Publishing Co, Amsterdam, The Netherlands)). […] For experiments with BIO, the reagent was added to the indicated final concentrations at the 4 cell stage and washed away at stage 8. Embryos were subsequently allowed to develop to tadpole stage. RNA injections were performed at 2-4 cell stage with the indicated amounts of in vitro transcribed RNA in a […] volume. Animal caps were dissected at blastula (stage 9) and cultured to neurula (stage 18) for RT-PCR analysis-. The RNA expression vectors were pCS2+DN Xtcf-3, encoding amino acids 88-553 of Xtcf-3 (Vonica et al. (2000) Dev. Biol. 217: 230-243), MTPA2 (Zeng et al. […] RT-PCR was performed as previously described (Chang et al. (1997) Development 124: 827-837), with the following oligonucleotides: for ODC sense [NT] and antisense 5° [NT] 3'; for nrp1 sense [NT] and antisense [NT]; for XAG1 sense [NT] and antisense 5° [NT] 3'; for en2 sense 5° [NT] 3' and antisense [NT]; for Xhoxb9 sense [NT] and antisense [NT]; for chordin sense 5° [NT] 3' and antisense [NT]. Phenotypes of embryos treated with BIO or LiCl were compared (FIG. 8B-G). […] The Wnt pathway can ectopically induce dorsal genes, like the direct Wnt target siamois ([…] et al. (1996) Development 122: 3055-3065), and the Spemann organizer marker and siamois target chordin (Kessler (1997) Proc. Natl. Acad. Sci. U.S.A. 94: 13017-22). […] Another outcome of ectopic Wnt pathway activation in Xenopus is the indirect induction of neural tissue in animal cap explants (Baker et al. (1999) Genes Dev. 13: 3149-3159). Explants from embryos treated with LiCl (FIG. 8I, lanes 4, 5), BIO (lanes 6, 7), or injected with RNA for the neuralizing factor noggin (lane 3), were compared by RT-PCR for various neural and anterior markers.

[4] = tested on: p27^KIP1 in 5L (AhR +/+) cells; experiment: p27KIP1 expression by Western blotting, 5L cells; assay type: cell-based, mouse; details: 10 μM indirubins or 0.1 μM TCDD, 24 hr
[5] = tested on: 5L (AhR +/+) hepatoma cells; experiment: FACS cell cycle analysis, 5L cells; assay type: cell-based, mouse; details: 10 μM indirubins or 100 nM TCDD, 24 hr
[6] = Solubility (qualitative remark); details: relative to parent indirubins / 3′-oximes
[7] = tested on: GSK-3; experiment: β-catenin phosphorylation on GSK-3 specific sites in COS-1 cells (Western blot); details: 5 μM indirubins or 20 mM LiCl, 24 hrs
[8] = tested on: GSK-3; experiment: β-catenin stabilization in AhR- or ARNT-deficient Hepa cell lines (Western blot); details: 10 μM BIO, 50 μM MeBIO, 24 hrs
[9] = tested on: 5L (AhR +/+) hepatoma cells; experiment: Cell viability MTT assay, 5L cells; assay type: cell-based, mouse; details: range of concentrations, 24 and 48 hr
[10] = tested on: AhR; experiment: AhR nuclear translocation in Hepa-1 and ARNT mutant cells (immunofluorescence); assay type: cell-based, mouse; details: 25 μM, 90 min, Hepa-1 wild-type and ARNT mutant cells
[11] = target: CDK1/cyclin B; experiment: CDK1/cyclin B kinase assay (histone H1, 15 μM ATP); assay type: biochemical, starfish (Marthasterias glacialis)
[12] = target: T1, AhR (Mus musculus, UniProt P30561); details: read-out: EC50 AhR (hepatoma cell line); Table 4; EGFP at 24 hours
T1 sequence (P30561 1-848): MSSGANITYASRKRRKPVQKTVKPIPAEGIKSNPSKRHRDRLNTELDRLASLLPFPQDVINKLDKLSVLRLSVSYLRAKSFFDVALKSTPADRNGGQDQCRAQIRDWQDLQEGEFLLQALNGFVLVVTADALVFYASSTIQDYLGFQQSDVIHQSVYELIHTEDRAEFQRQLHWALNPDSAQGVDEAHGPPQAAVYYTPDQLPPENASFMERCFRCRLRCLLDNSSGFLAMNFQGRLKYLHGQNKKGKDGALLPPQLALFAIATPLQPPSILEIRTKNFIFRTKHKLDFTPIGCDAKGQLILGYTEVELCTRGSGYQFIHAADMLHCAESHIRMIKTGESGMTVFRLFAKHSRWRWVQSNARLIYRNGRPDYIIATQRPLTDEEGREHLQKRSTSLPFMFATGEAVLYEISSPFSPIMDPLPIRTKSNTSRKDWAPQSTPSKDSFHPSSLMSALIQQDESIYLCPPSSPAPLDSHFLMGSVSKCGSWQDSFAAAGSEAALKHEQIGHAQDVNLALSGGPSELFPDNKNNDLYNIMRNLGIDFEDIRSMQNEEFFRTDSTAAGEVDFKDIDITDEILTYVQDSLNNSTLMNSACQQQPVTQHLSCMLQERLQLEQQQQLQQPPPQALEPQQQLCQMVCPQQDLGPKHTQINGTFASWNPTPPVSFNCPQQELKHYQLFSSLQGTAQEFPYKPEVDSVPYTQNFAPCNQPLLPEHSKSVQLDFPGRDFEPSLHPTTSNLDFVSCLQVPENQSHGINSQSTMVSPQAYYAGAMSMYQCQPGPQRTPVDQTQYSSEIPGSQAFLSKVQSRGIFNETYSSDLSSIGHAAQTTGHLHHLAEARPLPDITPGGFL

[13] = tested on: BP8 (AhR −/−) hepatoma cells; experiment: FACS cell cycle analysis, BP8 cells; assay type: cell-based, mouse; details: 10 μM indirubins or 100 nM TCDD, 24 hr
Description: Flow cytometry analysis (Coulter EPIX XL2, Beckman, Calif., USA) of cellular DNA content was performed on ethanol-fixed cell suspensions after ribonuclease A III treatment (Sigma) and propidium iodide (Sigma) staining, as previously described (French et al. (1985) Cytometry 6: 47-53). Percentages of cells in G0/G1, S and G2/M phases of cell cycle were then calculated on the basis of DNA distribution histograms provided by the software manufacturer.
Both 5L and BP8 cell lines were treated with 10 μM IO, MeIO, BIO, MeBIO or 100 nM TCDD for 24 hr.

[14] = target: CDK5/p25 (Homo sapiens, UniProt Q00535); experiment: CDK5/p25 kinase assay (histone H1, 15 μM ATP); assay type: biochemical, mammalian; details: read-out: IC50 CDK5/p25
[15] = target: T2, AhR (Homo sapiens, UniProt P35869)
[16] = target: GSK-3α/β; experiment: GSK-3α/β kinase assay (GS-1 peptide, 15 μM ATP); assay type: biochemical, porcine
[17] = target: CDK5/p35 (Homo sapiens, UniProt Q00535); design: made in house; details: Hoessel et al. (1999); cited from earlier work
[18] = target: T2, AhR; experiment: Yeast AhR reporter assay (β-galactosidase)
[19] = Table 4, read-out: IC50 CDK1/cycin B

T2 sequence (P35869 11-848): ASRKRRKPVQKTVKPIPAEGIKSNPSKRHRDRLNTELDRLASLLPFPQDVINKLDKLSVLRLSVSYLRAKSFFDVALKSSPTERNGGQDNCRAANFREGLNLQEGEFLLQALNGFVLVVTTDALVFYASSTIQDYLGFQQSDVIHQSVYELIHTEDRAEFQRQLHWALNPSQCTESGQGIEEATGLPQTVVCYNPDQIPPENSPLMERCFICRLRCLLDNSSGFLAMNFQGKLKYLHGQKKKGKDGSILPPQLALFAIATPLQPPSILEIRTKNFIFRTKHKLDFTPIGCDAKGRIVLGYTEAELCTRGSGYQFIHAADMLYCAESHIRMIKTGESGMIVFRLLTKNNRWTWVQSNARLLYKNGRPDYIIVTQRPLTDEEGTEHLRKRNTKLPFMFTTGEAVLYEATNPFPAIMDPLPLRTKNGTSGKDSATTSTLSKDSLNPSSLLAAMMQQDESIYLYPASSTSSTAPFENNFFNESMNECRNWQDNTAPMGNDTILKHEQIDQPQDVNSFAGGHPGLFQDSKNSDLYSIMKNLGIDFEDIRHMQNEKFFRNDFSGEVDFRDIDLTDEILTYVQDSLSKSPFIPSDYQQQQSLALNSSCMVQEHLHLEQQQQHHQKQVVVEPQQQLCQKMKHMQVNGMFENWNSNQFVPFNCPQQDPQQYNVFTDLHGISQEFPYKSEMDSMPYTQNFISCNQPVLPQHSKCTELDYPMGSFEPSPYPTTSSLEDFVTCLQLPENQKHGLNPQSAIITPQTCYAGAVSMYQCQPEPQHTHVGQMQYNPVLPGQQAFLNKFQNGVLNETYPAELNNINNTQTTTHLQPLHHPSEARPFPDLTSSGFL
T2 sequence (P27540 whole entry partner): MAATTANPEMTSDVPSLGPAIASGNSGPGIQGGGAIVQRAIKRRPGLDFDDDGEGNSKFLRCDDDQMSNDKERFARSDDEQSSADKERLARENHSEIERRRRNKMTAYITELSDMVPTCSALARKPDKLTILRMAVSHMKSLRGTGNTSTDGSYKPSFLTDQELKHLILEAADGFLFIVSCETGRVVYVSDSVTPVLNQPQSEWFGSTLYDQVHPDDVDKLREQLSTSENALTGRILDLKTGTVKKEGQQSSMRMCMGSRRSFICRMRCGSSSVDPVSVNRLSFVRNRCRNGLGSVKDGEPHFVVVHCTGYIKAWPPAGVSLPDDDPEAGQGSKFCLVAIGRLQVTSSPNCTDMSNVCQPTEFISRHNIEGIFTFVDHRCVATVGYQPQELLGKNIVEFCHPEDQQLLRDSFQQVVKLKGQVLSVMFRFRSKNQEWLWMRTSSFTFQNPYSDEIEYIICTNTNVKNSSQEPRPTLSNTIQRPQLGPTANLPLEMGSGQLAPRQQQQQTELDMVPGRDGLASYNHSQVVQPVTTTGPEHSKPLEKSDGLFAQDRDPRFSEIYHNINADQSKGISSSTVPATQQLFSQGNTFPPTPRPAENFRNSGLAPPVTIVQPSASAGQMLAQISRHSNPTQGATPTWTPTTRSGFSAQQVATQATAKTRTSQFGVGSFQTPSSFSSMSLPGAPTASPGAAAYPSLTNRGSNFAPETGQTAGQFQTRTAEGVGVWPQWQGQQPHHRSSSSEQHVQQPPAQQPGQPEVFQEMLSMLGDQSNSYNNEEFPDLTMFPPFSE
Chain of CDK5/p25 (Q00535 whole entry, species assumed): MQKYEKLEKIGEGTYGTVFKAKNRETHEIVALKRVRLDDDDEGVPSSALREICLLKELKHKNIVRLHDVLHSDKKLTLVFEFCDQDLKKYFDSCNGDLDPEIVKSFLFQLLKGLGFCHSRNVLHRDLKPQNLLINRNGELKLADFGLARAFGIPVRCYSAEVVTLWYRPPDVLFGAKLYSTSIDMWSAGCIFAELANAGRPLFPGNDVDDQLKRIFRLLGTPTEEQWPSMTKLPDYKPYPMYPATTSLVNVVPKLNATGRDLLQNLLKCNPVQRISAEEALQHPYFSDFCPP
Chain of CDK5/p25 (Q15078 99-307 partner limits assumed, species assumed): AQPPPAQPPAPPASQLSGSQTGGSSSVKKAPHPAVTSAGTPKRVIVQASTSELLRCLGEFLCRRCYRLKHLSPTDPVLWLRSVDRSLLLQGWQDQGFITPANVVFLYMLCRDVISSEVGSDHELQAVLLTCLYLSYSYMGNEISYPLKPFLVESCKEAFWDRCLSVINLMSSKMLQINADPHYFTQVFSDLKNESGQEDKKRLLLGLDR
Chain of CDK5/p35 (Q00535 whole entry, species assumed): as the sequence (Q00535 whole entry, species assumed) above
Chain of CDK5/p35 (Q15078 whole entry partner, species assumed): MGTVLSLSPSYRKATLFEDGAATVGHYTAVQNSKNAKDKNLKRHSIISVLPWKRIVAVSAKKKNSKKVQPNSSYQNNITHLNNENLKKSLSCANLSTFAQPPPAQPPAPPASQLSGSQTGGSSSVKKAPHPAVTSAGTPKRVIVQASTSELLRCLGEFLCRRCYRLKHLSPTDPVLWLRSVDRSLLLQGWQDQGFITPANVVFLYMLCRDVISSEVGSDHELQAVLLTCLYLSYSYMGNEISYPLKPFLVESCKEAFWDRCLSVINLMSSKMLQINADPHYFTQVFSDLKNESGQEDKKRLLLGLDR

SMILES | level of tyrosine phosphorylation of both GSK-3 isoforms [1] | survival of BP8 cells (MTT) [2] | embryo phenotype (anteriorization) [3] | p27^KIP1 expression in 5L cells [4] | accumulation of 5L cells in G1 phase [5] | unphosphorylated β-catenin level [7] | β-catenin stabilization [8] | survival of 5L cells (MTT) [9] | nuclear translocation of AhR [10] | IC50 [11, 19] [nM] | EC50 [12] [nM] | EC50 [15] [nM] | IC50 ([16]; Table 4, read-out: IC50 GSK-3) [nM] | also measured
O=C1Nc2cc(Br)ccc2/C1=C1/Nc2ccccc2/C1=N\O [7a] | dramatically reduced | equally sensitive to IO and BIO | phenocopies the LiCl effect in a dose-dependent manner | modest, but detectable increase | modest (but detectable) | major increase | triggered a robust β-catenin stabilization in both cell lines | equally sensitive to IO and BIO | triggered ARNT-independent nuclear redistribution of AhR |  |  |  |  | induction of siamois and chordin in animal cap explants (RT-PCR) ([3]; Li+ 0.3 M, BIO 50 μM): shows induction of both genes; effect on anterior markers otx2 and xag1 in animal cap explants (RT-PCR) ([3]; even at the lowest concentration tested (5 μM)): strongest effect on anterior markers; solubility (in words) [6]: increased solubility
CN1C(=O)C(=C2Nc3ccccc3C2=NO)c2ccc(Br)cc21 [13c, 6-Bromo-1-methylindirubin-3′-oxime] | None of these changes were observed | apparently not affected | remains without effect | very effective p27^KIP1 inducers | very striking accumulation | neither the kinase-inactive MeBIO nor IO, led to a major increase | inactive | apparently not affected | caused redistribution of AhR to the nucleus | 92000 | 93 | 20 | 44000 | IC50 ([11]; Table 5, read-out: IC50 CDK1/cyclin B): 92000 nM; accumulation of BP8 cells in G1 phase [13]: but not of AhR −/− cells (BP8); IC50 ([14]; Table 1): > 100000 nM; IC50 ([14]; Table 5): > 100000 nM; IC50 ([16]; Table 1, read-out: IC50 GSK-3 α/β): 44000 nM; IC50 ([16]; Table 5, read-out: IC50 GSK-3α/β): > 100000 nM
O=C1Nc2ccc(S(=O)(=O)O)cc2/C1=C1/Nc2ccccc2C1=O [I5S, indirubin-5-sulphonate] |  |  |  |  |  |  |  |  |  |  |  |  |  | IC50 [17]: 60 nM
O=C1Nc2ccc(I)cc2/C1=C1/Nc2ccccc2/C1=N\O [compound 19, 5-iodo-indirubin-3′-oxime, reference compound] |  |  |  |  |  |  |  |  | triggered ARNT-independent nuclear redistribution of AhR | 25 | 5 | 50 |  | 
Clc1cc2c(cc1Cl)Oc1cc(Cl)c(Cl)cc1O2 [compound 25, 2,3,7,8-tetrachlorodibenzo-p-dioxin, reference compound] |  |  |  | up-regulates the expression of both CYP1A1 and p27^KIP1 in the 5L | triggered an AhR-dependent arrest in G1 |  |  |  |  | > 15000 | 0.015 |  | > 15000 | EC50 [18]: 25 nM

Source: patent publication US20070276025A1, “Indirubin-Type Compounds, Compositions, and Methods for Their Use” (priority 2003, published 2007)
